≈ marks a conversion by molar mass, not a printed value.
Key:
[1] = tested on: Candida albicans; experiment: Antifungal activity against Candida albicans SC5314 assessed as fungal growth inhibition incubated for 48 hrs by broth microdilution method; type: functional
[2] = tested on: Candida albicans; experiment: Antifungal activity against Candida albicans 21 assessed as fungal growth inhibition incubated for 48 hrs by broth microdilution method; type: functional
[3] = tested on: Candida albicans; experiment: Antifungal activity against Candida albicans 22 assessed as fungal growth inhibition incubated for 48 hrs by broth microdilution method; type: functional
[4] = tested on: Nakaseomyces glabratus; experiment: Antifungal activity against Candida glabrata 201 assessed as fungal growth inhibition incubated for 48 hrs by broth microdilution method; type: functional
[5] = tested on: Nakaseomyces glabratus; experiment: Antifungal activity against Candida glabrata 202 assessed as fungal growth inhibition incubated for 48 hrs by broth microdilution method; type: functional
[6] = tested on: Nakaseomyces glabratus; experiment: Antifungal activity against Candida glabrata 205 assessed as fungal growth inhibition incubated for 48 hrs by broth microdilution method; type: functional
[7] = tested on: Pichia kudriavzevii; experiment: Antifungal activity against Candida krusei 68 assessed as fungal growth inhibition incubated for 48 hrs by broth microdilution method; type: functional
[8] = tested on: Pichia kudriavzevii; experiment: Antifungal activity against Candida krusei 69 assessed as fungal growth inhibition incubated for 48 hrs by broth microdilution method; type: functional
[9] = tested on: Pichia kudriavzevii; experiment: Antifungal activity against Candida krusei 477 assessed as fungal growth inhibition incubated for 48 hrs by broth microdilution method; type: functional
[10] = tested on: Candida parapsilosis; experiment: Antifungal activity against Candida parapsilosis 105 assessed as fungal growth inhibition incubated for 48 hrs by broth microdilution method; type: functional; settings: Lodderomyces parapsilosis
[11] = tested on: Candida parapsilosis; experiment: Antifungal activity against Candida parapsilosis 125 assessed as fungal growth inhibition incubated for 48 hrs by broth microdilution method; type: functional; settings: Lodderomyces parapsilosis
[12] = tested on: Candida tropicalis; experiment: Antifungal activity against Candida tropicalis 176 assessed as fungal growth inhibition incubated for 48 hrs by broth microdilution method; type: functional
[13] = tested on: Candida tropicalis; experiment: Antifungal activity against Candida tropicalis 178 assessed as fungal growth inhibition incubated for 48 hrs by broth microdilution method; type: functional
[14] = tested on: Candida tropicalis; experiment: Antifungal activity against Candida tropicalis 184 assessed as fungal growth inhibition incubated for 48 hrs by broth microdilution method; type: functional
[15] = tested on: Cryptococcus neoformans; experiment: Antifungal activity against Cryptococcus neoformans 443 assessed as fungal growth inhibition incubated for 48 hrs by broth microdilution method; type: functional
[16] = tested on: Cryptococcus neoformans; experiment: Antifungal activity against Cryptococcus neoformans 444 assessed as fungal growth inhibition incubated for 48 hrs by broth microdilution method; type: functional
[17] = tested on: Cryptococcus neoformans; experiment: Antifungal activity against Cryptococcus neoformans 445 assessed as fungal growth inhibition incubated for 48 hrs by broth microdilution method; type: functional
[18] = tested on: Aspergillus fumigatus; experiment: Antifungal activity against Aspergillus fumigatus A assessed as fungal growth inhibition incubated for 48 hrs by broth microdilution method; type: functional
[19] = tested on: Aspergillus fumigatus; experiment: Antifungal activity against Aspergillus fumigatus 7544 assessed as fungal growth inhibition incubated for 48 hrs by broth microdilution method; type: functional
[20] = Cytotoxicity against human Caco-2 cells assessed as cell growth inhibition incubated for 24 hrs by CCK8 assay; type: toxicity, cell-based
[21] = tested on: Candida albicans; experiment: Antifungal activity against Candida albicans 25 assessed as fungal growth inhibition incubated for 48 hrs by broth microdilution method; type: functional
[22] = tested on: Candida albicans; experiment: Antifungal activity against Candida albicans 337 assessed as fungal growth inhibition incubated for 48 hrs by broth microdilution method; type: functional
[23] = tested on: Candida albicans; experiment: Antifungal activity against Candida albicans 338 assessed as fungal growth inhibition incubated for 48 hrs by broth microdilution method; type: functional
[24] = tested on: [Candida] auris; experiment: Antifungal activity against Candida auris 276 assessed as fungal growth inhibition incubated for 48 hrs by broth microdilution method; type: functional; settings: Candidozyma auris
[25] = tested on: [Candida] auris; experiment: Antifungal activity against Candida auris 277 assessed as fungal growth inhibition incubated for 48 hrs by broth microdilution method; type: functional; settings: Candidozyma auris
[26] = tested on: [Candida] auris; experiment: Antifungal activity against Candida auris 278 assessed as fungal growth inhibition incubated for 48 hrs by broth microdilution method; type: functional; settings: Candidozyma auris
[27] = tested on: [Candida] auris; experiment: Antifungal activity against Candida auris CBS 12372 assessed as fungal growth inhibition incubated for 48 hrs by broth microdilution method; type: functional; settings: Candidozyma auris
[28] = tested on: [Candida] auris; experiment: Antifungal activity against Candida auris 887 assessed as fungal growth inhibition incubated for 48 hrs by broth microdilution method; type: functional; settings: Candidozyma auris
[29] = tested on: [Candida] auris; experiment: Antifungal activity against Candida auris 888 assessed as fungal growth inhibition incubated for 48 hrs by broth microdilution method; type: functional; settings: Candidozyma auris
[30] = tested on: Nakaseomyces glabratus; experiment: Antifungal activity against Candida glabrata 203 assessed as fungal growth inhibition incubated for 48 hrs by broth microdilution method; type: functional
[31] = tested on: Nakaseomyces glabratus; experiment: Antifungal activity against Candida glabrata 204 assessed as fungal growth inhibition incubated for 48 hrs by broth microdilution method; type: functional
[32] = tested on: Nakaseomyces glabratus; experiment: Antifungal activity against Candida glabrata 222 assessed as fungal growth inhibition incubated for 48 hrs by broth microdilution method; type: functional
[33] = tested on: Pichia kudriavzevii; experiment: Antifungal activity against Candida krusei 472 assessed as fungal growth inhibition incubated for 48 hrs by broth microdilution method; type: functional
[34] = tested on: Pichia kudriavzevii; experiment: Antifungal activity against Candida krusei 474 assessed as fungal growth inhibition incubated for 48 hrs by broth microdilution method; type: functional
[35] = tested on: Candida parapsilosis; experiment: Antifungal activity against Candida parapsilosis 104 assessed as fungal growth inhibition incubated for 48 hrs by broth microdilution method; type: functional; settings: Lodderomyces parapsilosis
[36] = tested on: Candida parapsilosis; experiment: Antifungal activity against Candida parapsilosis 106 assessed as fungal growth inhibition incubated for 48 hrs by broth microdilution method; type: functional; settings: Lodderomyces parapsilosis
[37] = tested on: Candida tropicalis; experiment: Antifungal activity against Candida tropicalis 172 assessed as fungal growth inhibition incubated for 48 hrs by broth microdilution method; type: functional
[38] = tested on: Candida tropicalis; experiment: Antifungal activity against Candida tropicalis 177 assessed as fungal growth inhibition incubated for 48 hrs by broth microdilution method; type: functional
[39] = tested on: Candida tropicalis; experiment: Antifungal activity against Candida tropicalis 182 assessed as fungal growth inhibition incubated for 48 hrs by broth microdilution method; type: functional
[40] = tested on: Cryptococcus neoformans; experiment: Antifungal activity against Cryptococcus neoformans H99 assessed as fungal growth inhibition incubated for 48 hrs by broth microdilution method; type: functional
[41] = tested on: Cryptococcus neoformans; experiment: Antifungal activity against Cryptococcus neoformans SH68 assessed as fungal growth inhibition incubated for 48 hrs by broth microdilution method; type: functional
[42] = tested on: Cryptococcus neoformans; experiment: Antifungal activity against Cryptococcus neoformans 56992 assessed as fungal growth inhibition incubated for 48 hrs by broth microdilution method; type: functional
[43] = tested on: Cryptococcus neoformans; experiment: Antifungal activity against Cryptococcus neoformans HN1 assessed as fungal growth inhibition incubated for 48 hrs by broth microdilution method; type: functional
[44] = tested on: Cryptococcus neoformans; experiment: Antifungal activity against Cryptococcus neoformans HN2 assessed as fungal growth inhibition incubated for 48 hrs by broth microdilution method; type: functional
[45] = tested on: Cryptococcus neoformans; experiment: Antifungal activity against Cryptococcus neoformans HN2-40 assessed as fungal growth inhibition incubated for 48 hrs by broth microdilution method; type: functional
[46] = tested on: Cryptococcus neoformans; experiment: Antifungal activity against Cryptococcus neoformans HN17 assessed as fungal growth inhibition incubated for 48 hrs by broth microdilution method; type: functional
[47] = tested on: Cryptococcus neoformans; experiment: Antifungal activity against Cryptococcus neoformans HN19 assessed as fungal growth inhibition incubated for 48 hrs by broth microdilution method; type: functional
[48] = tested on: Cryptococcus neoformans; experiment: Antifungal activity against Cryptococcus neoformans HN20 assessed as fungal growth inhibition incubated for 48 hrs by broth microdilution method; type: functional
[49] = Antifungal activity against Cryptococcus gattii WM178 assessed as fungal growth inhibition incubated for 48 hrs by broth microdilution method; type: functional, Cryptococcus gattii VGI
[50] = Antifungal activity against Cryptococcus gattii WM179 assessed as fungal growth inhibition incubated for 48 hrs by broth microdilution method; type: functional, Cryptococcus gattii VGI
[51] = Antifungal activity against Cryptococcus gattii E566 assessed as fungal growth inhibition incubated for 48 hrs by broth microdilution method; type: functional, Cryptococcus gattii VGI
[52] = Antifungal activity against Cryptococcus gattii SCZ20024 assessed as fungal growth inhibition incubated for 48 hrs by broth microdilution method; type: functional, Cryptococcus gattii VGI
[53] = Antifungal activity against Cryptococcus gattii SCZ20031 assessed as fungal growth inhibition incubated for 48 hrs by broth microdilution method; type: functional, Cryptococcus gattii VGI

`Oc1c(I)cc(Cl)c2cccnc12` [CLIOQUINOL] showed an MIC [1] of 0.125 µg/mL (≈ 0.409 µM), an MIC [2] of 0.125 µg/mL (≈ 0.409 µM) and an MIC [3] of 0.125 µg/mL (≈ 0.409 µM). For the same compound, the MIC [4] was 0.125 µg/mL (≈ 0.409 µM), the MIC [5] was 0.125 µg/mL (≈ 0.409 µM) and the MIC [6] was 0.25 µg/mL (≈ 0.818 µM). The MIC [7] was 0.25 µg/mL (≈ 0.818 µM), the MIC [8] was 0.125 µg/mL (≈ 0.409 µM) and the MIC [9] was 0.25 µg/mL (≈ 0.818 µM). The MIC [10] was 0.25 µg/mL (≈ 0.818 µM), the MIC [11] was 0.25 µg/mL (≈ 0.818 µM) and the MIC [12] was 0.032 µg/mL (≈ 0.105 µM). The MIC [13] was 0.125 µg/mL (≈ 0.409 µM), the MIC [14] was 0.125 µg/mL (≈ 0.409 µM) and the MIC [15] was 0.125 µg/mL (≈ 0.409 µM). The MIC [16] was 0.125 µg/mL (≈ 0.409 µM), the MIC [17] was 0.063 µg/mL (≈ 0.206 µM) and the MIC [18] was 0.25 µg/mL (≈ 0.818 µM). The MIC [19] was 0.25 µg/mL (≈ 0.818 µM), the IC50 at 24 h [20] was 19.3 µg/mL (≈ 63.1 µM) and the MIC [21] was 0.125 µg/mL (≈ 0.409 µM). For the same compound, the MIC [22] was 0.125 µg/mL (≈ 0.409 µM), the MIC [23] was 0.125 µg/mL (≈ 0.409 µM) and the MIC [24] was 0.063 µg/mL (≈ 0.206 µM). The MIC [25] was 0.063 µg/mL (≈ 0.206 µM), the MIC [26] was 0.125 µg/mL (≈ 0.409 µM) and the MIC [27] was 0.063 µg/mL (≈ 0.206 µM). The MIC [28] was 0.5 µg/mL (≈ 1.64 µM), the MIC [29] was 0.25 µg/mL (≈ 0.818 µM) and the MIC [30] was 0.125 µg/mL (≈ 0.409 µM). For the same compound, the MIC [31] was 0.125 µg/mL (≈ 0.409 µM), the MIC [32] was 0.25 µg/mL (≈ 0.818 µM) and the MIC [33] was 0.125 µg/mL (≈ 0.409 µM). It also gave an MIC [34] of 0.25 µg/mL (≈ 0.818 µM), an MIC [35] of 0.125 µg/mL (≈ 0.409 µM) and an MIC [36] of 0.25 µg/mL (≈ 0.818 µM). For the same compound, the MIC [37] was 0.125 µg/mL (≈ 0.409 µM), the MIC [38] was 0.125 µg/mL (≈ 0.409 µM) and the MIC [39] was 0.125 µg/mL (≈ 0.409 µM). The MIC [40] was 0.125 µg/mL (≈ 0.409 µM), the MIC [41] was 0.125 µg/mL (≈ 0.409 µM) and the MIC [42] was 0.063 µg/mL (≈ 0.206 µM). It also gave an MIC [43] of 0.125 µg/mL (≈ 0.409 µM), an MIC [44] of 0.125 µg/mL (≈ 0.409 µM) and an MIC [45] of 0.063 µg/mL (≈ 0.206 µM). The MIC [46] was 0.125 µg/mL (≈ 0.409 µM), the MIC [47] was 0.063 µg/mL (≈ 0.206 µM) and the MIC [48] was 0.063 µg/mL (≈ 0.206 µM). For the same compound, the MIC [49] was 0.031 µg/mL (≈ 0.101 µM), the MIC [50] was 0.031 µg/mL (≈ 0.101 µM) and the MIC [51] was 0.031 µg/mL (≈ 0.101 µM). It also gave an MIC [52] of 0.031 µg/mL (≈ 0.101 µM) and an MIC [53] of 0.031 µg/mL (≈ 0.101 µM).

Source: ChEMBL document CHEMBL5375952, “Discovery of Novel 8-Hydroxyquinoline Derivatives with Potent In Vitro and In Vivo Antifungal Activity” (J Med Chem, 2023)
